# Data as given in US20250388574A1, “HETEROCYCLIC COMPOUNDS AS TRIGGERING RECEPTOR EXPRESSED ON MYELOID CELLS 2 AGONISTS AND METHODS OF USE” (AMGEN INC., priority 2020, published 2025).
# Target: hTREM2 (Homo sapiens, UniProt Q9NZC2)
# Assay: Phospho-Syk AlphaScreen/AlphaLISA assay in TREM2 and DAP12 overexpressing HEK293 cells (Example A1)
# Format: cell-based
# Set-up: expressed in transfected cells
# Conditions: HEK293 cells; for EC50: read-out: hTREM2 EC50
# Procedure, shortened: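 Agonism read as Syk phosphorylation: compounds in 1% DMSO applied 45 min at room temperature to TREM2/DAP12-HEK293 cells after 20 h culture. Lysis buffer with phosphatase inhibitors and anti-phospho-Syk plus biotinylated anti-Syk antibodies, then AlphaLISA beads (680 nm excitation); percent of control computed from antibody/isotype wells, curves fitted sigmoidally.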
# Chain of hTREM2 (Q9NZC2 19-230): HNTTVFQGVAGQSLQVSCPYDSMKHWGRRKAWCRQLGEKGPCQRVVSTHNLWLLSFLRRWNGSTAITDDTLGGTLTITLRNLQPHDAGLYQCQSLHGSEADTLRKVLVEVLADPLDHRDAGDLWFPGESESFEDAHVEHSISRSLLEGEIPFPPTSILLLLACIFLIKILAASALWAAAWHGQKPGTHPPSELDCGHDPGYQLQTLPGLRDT
# Chain of hTREM2 (O43914 22-113 partner): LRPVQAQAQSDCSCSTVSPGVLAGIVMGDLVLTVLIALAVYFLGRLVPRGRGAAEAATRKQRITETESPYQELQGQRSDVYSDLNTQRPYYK
Structure (SMILES),Emax,EC50 [µM]
"Cc1nc2cc(N3CCO[C@H]([C@@H]4CCO4)C3)nc(-c3ccc(Cl)cc3F)c2c(=O)n1C (single isomer, unassigned) [Example 40]",+++ (Emax>200 and ≤300),0.5 to 3
"Cc1nc2cc(N3C[C@@H](c4cnn(C)c4)O[C@@H](C)C3)nc(-c3ccc(Cl)cc3F)c2c(=O)n1C (single isomer, unassigned) [Example 29]",+++ (Emax>200 and ≤300),0.5 to 3
"Cc1nc2cc(N3CCO[C@H](c4ccccn4)C3)nc(-c3ccc(Cl)cc3F)c2c(=O)n1C [Example 209, (S)-5-(4-chloro-2-fluorophenyl)-2,3-dimethyl-7-(2-(pyridin-2-yl)morpholino)pyrido[4,3-d]pyrimidin-4(3H)-one]",+++ (Emax>200 and ≤300),0.5 to 3
"Cc1nc2cc(N3CCC(F)(F)[C@H](c4cnn(C)c4)C3)nc(-c3ccc(Cl)cc3F)c2c(=O)n1C (single isomer, unassigned) [Example 117]",+++ (Emax>200 and ≤300),< 0.05
"Cc1nc2cc(N3CCO[C@@H](C4CC4)C3)nc(-c3ccc(Cl)cc3F)c2c(=O)n1C [Example 188, (S)-5-(4-chloro-2-fluorophenyl)-7-(2-cyclopropylmorpholino)-2,3-dimethylpyrido[4,3-d]pyrimidin-4(3H)-one]",++++ (Emax>300),0.5 to 3
"Cc1nc2cc(N3CCO[C@@H]([C@H]4CCOC4)C3)nc(-c3ccc(Cl)cc3F)c2c(=O)n1C (single isomer, unassigned) [Example 42]",++++ (Emax>300),0.05 to 0.5
"Cc1ccc(C2CC(c3cc4nc(C)n(C)c(=O)c4c(-c4ccc(Cl)cc4F)n3)CCO2)cn1 (stereo not shown) [Example 171, 5-(4-chloro-2-fluorophenyl)-2,3-dimethyl-7-(2-(6-methylpyridin-3-yl)tetrahydro-2H-pyran-4-yl)pyrido[4,3-d]pyrimidin-4(3H)-one]",+++ (Emax>200 and ≤300),0.05 to 0.5
"Cc1cc([C@@H]2CN(c3cc4nc(C)n(C)c(=O)c4c(-c4ccc(Cl)cc4F)n3)CCO2)cc(C)n1 (single isomer, unassigned) [Example 76]",++++ (Emax>300),0.05 to 0.5
"CCCn1c(C)nc2cc(N3CCOC(c4cnn(C)c4)C3)nc(-c3ncc(Cl)cc3F)c2c1=O (stereo not shown) [Example 21, 5-(5-chloro-3-fluoro-2-pyridinyl)-2-methyl-7-(2-(1-methyl-1H-pyrazol-4-yl)-4-morpholinyl)-3-propylpyrido-[4,3-d]pyrimidin-4(3H)-one]",++++ (Emax>300),0.05 to 0.5
"Cc1nc2cc(N3CCc4ccncc4C3)nc(-c3ccc(Cl)cc3F)c2c(=O)n1C [Example 102, 5-(4-chloro-2-fluorophenyl)-7-(3,4-dihydro-2,7-naphthyridin-2(1H)-yl)-2,3-dimethylpyrido[4,3-d]pyrimidin-4(3H)-one]",+++ (Emax>200 and ≤300),0.05 to 0.5
"Cc1nc2cc(N3CCO[C@H](c4ccnc(C(F)(F)F)c4)C3)nc(-c3ccc(Cl)cc3F)c2c(=O)n1C [Example 265, (R)-5-(4-chloro-2-fluorophenyl)-2,3-dimethyl-7-(2-(2-(trifluoromethyl)pyridin-4-yl)morpholino)pyrido[4,3-d]pyrimidin-4(3H)-one]",+++ (Emax>200 and ≤300),0.5 to 3
"Cc1nc2cc(N3CCO[C@@H](c4cnn(C5CC5)c4)C3)nc(-c3ccc(Cl)cc3F)c2c(=O)n1C [Example 136, 5-(4-chloro-2-fluorophenyl)-7-((2S)-2-(1-cyclopropyl-1H-pyrazol-4-yl)-4-morpholinyl)-2,3-dimethylpyrido[4,3-d]pyrimidin-4(3H)-one]",++++ (Emax>300),< 0.05
"Cc1nc2cc(N3CCC[C@H](N4CCCC4)C3)nc(-c3ccc(Cl)cc3F)c2c(=O)n1C [Example 242, (S)-5-(4-chloro-2-fluorophenyl)-2,3-dimethyl-7-(3-(pyrrolidin-1-yl)piperidin-1-yl)pyrido[4,3-d]pyrimidin-4(3H)-one]",+++ (Emax>200 and ≤300),3 to 100
"Cc1nc2cc(N3C[C@H](c4cnn(C)c4)OC[C@H]3C)nc(-c3ccc(Cl)cc3F)c2c(=O)n1C (single isomer, unassigned) [Example 25]",+++ (Emax>200 and ≤300),0.5 to 3
"Cc1ncc([C@H]2CN(c3cc4nc(C)n(C)c(=O)c4c(-c4ccc(Cl)cc4F)n3)CCO2)cn1 (single isomer, unassigned) [Example 65]",++ (Emax>100 and ≤200),3 to 100
"Cc1nc2cc(N3C[C@H](C)O[C@@H](c4cnn(C)c4)C3)nc(-c3ccc(Cl)cc3F)c2c(=O)n1C (single isomer, unassigned) [Example 30]",+++ (Emax>200 and ≤300),0.5 to 3
"CCCn1c(C)nc2cc(N3CCO[C@H](CF)C3)nc(-c3ccc(Cl)cc3F)c2c1=O [Example 193, (S)-5-(4-chloro-2-fluorophenyl)-7-(2-(fluoromethyl)morpholino)-2-methyl-3-propylpyrido[4,3-d]pyrimidin-4(3H)-one]",+++ (Emax>200 and ≤300),0.5 to 3
"Cc1nc2cc(N3CCO[C@H](c4cccc(Cl)c4)C3)nc(-c3ccc(Cl)cc3F)c2c(=O)n1C [Example 239, (R)-5-(4-chloro-2-fluorophenyl)-7-(2-(3-chlorophenyl)morpholino)-2,3-dimethylpyrido[4,3-d]pyrimidin-4(3H)-one]",+++ (Emax>200 and ≤300),3 to 100
"Cc1nc2cc(N3CCO[C@@H](c4cnn(C)c4)C3)nc(-c3ccc(F)cc3)c2c(=O)n1C [Example 229, (S)-5-(4-fluorophenyl)-2,3-dimethyl-7-(2-(1-methyl-1H-pyrazol-4-yl)morpholino)pyrido[4,3-d]pyrimidin-4(3H)-one]",++++ (Emax>300),0.5 to 3
"Cc1nc2cc(N3CCO[C@@H](c4cccnc4)C3)nc(-c3ccc(Cl)cc3F)c2c(=O)n1C (single isomer, unassigned) [Example 46]",++++ (Emax>300),0.05 to 0.5
"Cc1nc2cc(N3CCO[C@@H](c4cnn(C)c4)C3)nc(-c3cc(F)c(F)cc3F)c2c(=O)n1C [Example 10, 2,3-dimethyl-7-((2S)-2-(1-methyl-1H-pyrazol-4-yl)-4-morpholinyl)-5-(2,4,5-trifluorophenyl)pyrido[4,3-d]pyrimidin-4(3H)-one]",++++ (Emax>300),0.05 to 0.5
"Cc1nc2cc(N3CCO[C@@H](c4cnn(CC(F)(F)F)c4)C3)nc(-c3ccc(Cl)cc3F)c2c(=O)n1C [Example 126, 5-(4-chloro-2-fluorophenyl)-2,3-dimethyl-7-((2S)-2-(1-(2,2,2-trifluoroethyl)-1H-pyrazol-4-yl)-4-morpholinyl)pyrido[4,3-d]pyrimidin-4(3H)-one]",+++ (Emax>200 and ≤300),< 0.05
"COc1cc([C@@H]2C[C@@H](c3cc4nc(C)n(C)c(=O)c4c(-c4ccc(Cl)cc4F)n3)CCO2)ccn1 [Example 268, 5-(4-chloro-2-fluorophenyl)-7-((2S,4S)-2-(2-methoxypyridin-4-yl)tetrahydro-2H-pyran-4-yl)-2,3-dimethylpyrido[4,3-d]pyrimidin-4(3H)-one]",++++ (Emax>300),0.05 to 0.5
